Data published in ChEMBL document CHEMBL4706768, “Discovery of Potent, Selective Triazolothiadiazole-Containing c-Met Inhibitors” (ACS Med Chem Lett, 2021).
pIC50, pKi: −log10 of the molar value.

Assays:
[1] = molecular target: Serine/threonine-protein kinase N2 (Homo sapiens) (UniProt Q16513); assay: Inhibition of PRK2 (unknown origin) at 2 uM relative to control
[2] = molecular target: Tyrosine-protein kinase Lyn (Homo sapiens) (UniProt P07948); assay: Inhibition of recombinant human N-terminal His6-tagged full-length LYN expressed in Sf21 insect cells at 2 uM using Poly (Glu4-Tyr) (4:1) as substrate relative to control
[3] = molecular target: Mitogen-activated protein kinase; ERK1/ERK2 (Homo sapiens) (UniProt P27361+P28482); assay: Inhibition of recombinant human full-length N-terminal GST-tagged MAPK1/ERK1 ([…]) expressed in Escherichia coli at 2 uM using MBP as substrate relative to control
[4] = Unbound intrinsic clearance in mouse hepatocytes assessed per million cells; format: ADME, cell-based, Hepatocyte
[5] = molecular target: Tyrosine-protein kinase JAK2 (Homo sapiens, UniProt O60674); assay: Inhibition of JAK2 (unknown origin)
[6] = molecular target: Dual specificity mitogen-activated protein kinase kinase 6 (Homo sapiens) (UniProt P52564); assay: Inhibition of recombinant human N-terminal MBP-tagged MKK6 (4 to end residues) expressed in Escherichia coli at 2 uM using p38alpha/SAPK2a.as substrate relative to control
[7] = molecular target: Vascular endothelial growth factor receptor 2 (Homo sapiens, UniProt P35968); assay: Inhibition of KDR (unknown origin)
[8] = molecular target: Cyclin-dependent kinase 5/CDK5 activator 1 (Homo sapiens) (UniProt Q00535+Q15078); assay: Inhibition of recombinant N-terminal His6-tagged human full-length CDK5/N-terminal GST-tagged full-length p35 expressed in baculovirus infected Sf21 insect cells at 2 uM using Histone H1 as substrate relative to control
[9] = molecular target: Hepatocyte growth factor receptor (Homo sapiens, UniProt P08581); assay: Inhibition of c-MET in human SNU-5 cells measured after 6 hrs by steady-glo luciferase reporter gene assay; format: cell-based
Sequence of Hepatocyte growth factor receptor (P08581 whole entry): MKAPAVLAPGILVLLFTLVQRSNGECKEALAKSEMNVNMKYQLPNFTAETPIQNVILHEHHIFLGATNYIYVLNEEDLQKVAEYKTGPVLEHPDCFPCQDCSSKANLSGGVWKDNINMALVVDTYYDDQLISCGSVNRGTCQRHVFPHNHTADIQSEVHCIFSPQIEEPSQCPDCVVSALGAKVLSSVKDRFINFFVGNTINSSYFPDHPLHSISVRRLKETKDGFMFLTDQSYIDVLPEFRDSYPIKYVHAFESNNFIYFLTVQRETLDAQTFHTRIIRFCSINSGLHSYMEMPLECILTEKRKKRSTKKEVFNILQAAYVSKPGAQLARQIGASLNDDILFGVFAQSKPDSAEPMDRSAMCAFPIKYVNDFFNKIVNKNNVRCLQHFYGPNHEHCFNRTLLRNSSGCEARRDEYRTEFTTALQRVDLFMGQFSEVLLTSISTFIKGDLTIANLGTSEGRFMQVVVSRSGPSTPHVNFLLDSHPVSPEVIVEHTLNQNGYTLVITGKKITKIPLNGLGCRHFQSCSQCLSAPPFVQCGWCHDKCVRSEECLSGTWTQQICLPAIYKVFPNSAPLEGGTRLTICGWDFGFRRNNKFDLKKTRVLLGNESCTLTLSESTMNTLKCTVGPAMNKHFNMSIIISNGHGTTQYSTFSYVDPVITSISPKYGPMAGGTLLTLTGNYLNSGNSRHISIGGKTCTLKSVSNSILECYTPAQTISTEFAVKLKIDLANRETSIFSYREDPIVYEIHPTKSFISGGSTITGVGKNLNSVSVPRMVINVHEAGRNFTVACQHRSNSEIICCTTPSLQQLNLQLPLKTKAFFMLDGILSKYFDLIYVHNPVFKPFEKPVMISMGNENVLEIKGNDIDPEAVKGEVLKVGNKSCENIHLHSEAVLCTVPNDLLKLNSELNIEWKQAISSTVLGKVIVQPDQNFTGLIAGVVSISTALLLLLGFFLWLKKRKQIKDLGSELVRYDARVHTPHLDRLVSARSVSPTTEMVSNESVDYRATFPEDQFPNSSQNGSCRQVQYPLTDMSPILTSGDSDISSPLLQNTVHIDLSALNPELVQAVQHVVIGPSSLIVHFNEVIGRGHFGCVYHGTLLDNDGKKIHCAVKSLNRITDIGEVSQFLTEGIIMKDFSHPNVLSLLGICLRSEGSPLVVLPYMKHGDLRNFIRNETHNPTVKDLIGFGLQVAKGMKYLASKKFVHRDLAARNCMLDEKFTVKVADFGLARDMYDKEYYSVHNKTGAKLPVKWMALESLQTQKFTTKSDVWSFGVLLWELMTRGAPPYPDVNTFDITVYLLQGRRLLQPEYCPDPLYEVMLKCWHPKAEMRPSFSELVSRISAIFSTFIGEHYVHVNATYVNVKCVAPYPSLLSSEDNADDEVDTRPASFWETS

[10] = molecular target: MAP kinase-activated protein kinase 5 (Homo sapiens) (UniProt Q8IW41); assay: Inhibition of recombinant human N-terminal His6-tagged full-length PRAK expressed in baculovirus infected Sf21 insect cells at 2 uM using PRAK substrate peptide relative to control
[11] = molecular target: Mitogen-activated protein kinase 11 (Homo sapiens) (UniProt Q15759); assay: Inhibition of recombinant human N-terminal GST-tagged full-length p38beta2 expressed in Escherichia coli at 2 uM using MBP as substrate relative to control
[12] = molecular target: Protein kinase C beta type (Homo sapiens) (UniProt P05771); assay: Inhibition of recombinant human N-terminal His6-tagged PKCbeta2 (2 to end residues) expressed in Sf21 insect cells at 2 uM using Histone H1 as substrate relative to control
[13] = molecular target: Tyrosine-protein kinase receptor TYRO3 (Homo sapiens, UniProt Q06418); assay: Inhibition of SKY (unknown origin)
[14] = molecular target: Calcium/calmodulin-dependent protein kinase type II subunit beta (Homo sapiens) (UniProt Q13554); assay: Inhibition of recombinant human N-terminal His6-tagged CAMK2beta (1 to 315 residues) expressed in baculovirus infected Sf21 insect cells at 2 uM using ZIPtide as substrate relative to control
[15] = molecular target: Inhibitor of nuclear factor kappa-B kinase subunit alpha (Homo sapiens) (UniProt O15111); assay: Inhibition of IKKa (unknown origin) at 2 uM relative to control
Sequence of Inhibitor of nuclear factor kappa-B kinase subunit alpha (Homo sapiens) (O15111 whole entry): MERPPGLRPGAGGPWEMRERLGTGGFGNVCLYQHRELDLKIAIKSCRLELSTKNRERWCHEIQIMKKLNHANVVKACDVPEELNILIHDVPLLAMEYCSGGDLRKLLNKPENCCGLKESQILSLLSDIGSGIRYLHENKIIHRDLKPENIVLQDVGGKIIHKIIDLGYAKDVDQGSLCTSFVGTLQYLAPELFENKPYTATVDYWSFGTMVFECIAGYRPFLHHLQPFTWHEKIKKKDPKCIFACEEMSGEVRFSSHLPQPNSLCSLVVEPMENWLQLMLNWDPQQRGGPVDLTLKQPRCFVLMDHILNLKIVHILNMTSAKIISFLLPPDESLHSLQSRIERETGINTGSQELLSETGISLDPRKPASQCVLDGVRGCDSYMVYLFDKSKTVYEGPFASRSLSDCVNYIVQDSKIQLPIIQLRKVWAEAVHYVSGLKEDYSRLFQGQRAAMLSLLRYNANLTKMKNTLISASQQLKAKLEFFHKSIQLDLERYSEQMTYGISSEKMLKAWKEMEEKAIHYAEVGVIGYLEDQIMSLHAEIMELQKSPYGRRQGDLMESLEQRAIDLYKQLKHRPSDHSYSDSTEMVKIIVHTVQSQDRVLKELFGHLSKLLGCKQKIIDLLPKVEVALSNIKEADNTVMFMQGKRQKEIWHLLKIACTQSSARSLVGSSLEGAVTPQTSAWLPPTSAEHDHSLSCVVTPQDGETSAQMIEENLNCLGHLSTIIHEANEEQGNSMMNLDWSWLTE

[16] = molecular target: Tyrosine-protein kinase receptor UFO (Homo sapiens) (UniProt P30530); assay: Inhibition of recombinant N-terminal His6-tagged human AXL (473 to end residues) expressed in Sf21 insect cells at 2 uM using Axl-tide as substrate relative to control
[17] = molecular target: Serine/threonine-protein kinase Sgk1 (Homo sapiens) (UniProt O00141); assay: Inhibition of SGK (unknown origin) at 2 uM relative to control
Sequence of Serine/threonine-protein kinase Sgk1 (Homo sapiens) (O00141 whole entry): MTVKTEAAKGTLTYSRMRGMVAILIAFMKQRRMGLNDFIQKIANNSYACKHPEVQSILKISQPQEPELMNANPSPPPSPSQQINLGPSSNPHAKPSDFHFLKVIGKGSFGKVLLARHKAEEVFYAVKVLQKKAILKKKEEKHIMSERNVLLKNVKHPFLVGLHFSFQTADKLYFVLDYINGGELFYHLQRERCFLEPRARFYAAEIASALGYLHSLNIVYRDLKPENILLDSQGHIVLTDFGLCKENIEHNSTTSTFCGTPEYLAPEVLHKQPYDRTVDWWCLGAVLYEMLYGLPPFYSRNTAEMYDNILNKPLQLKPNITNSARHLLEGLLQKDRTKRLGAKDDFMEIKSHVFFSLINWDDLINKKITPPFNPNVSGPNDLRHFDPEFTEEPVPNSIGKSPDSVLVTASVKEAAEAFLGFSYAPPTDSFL

[18] = molecular target: Ribosomal protein S6 kinase alpha-5 (Homo sapiens) (UniProt O75582); assay: Inhibition of recombinant human N-terminal His6-tagged MSK1 (2 to end residues) expressed in baculovirus infected Sf21 insect cells at 2 uM using Crosstide as substrate relative to control
[19] = molecular target: ALK tyrosine kinase receptor (Homo sapiens) (UniProt Q9UM73); assay: Inhibition of recombinant N-terminal His6-tagged human ALK (1058 to end residues) expressed in baculovirus infected Sf21 insect cells at 2 uM using IGF-1Rtide as substrate relative to control
[20] = test system: RAF proto-oncogene serine/threonine-protein kinase (Homo sapiens), P04049 [Y340D,Y341D]; assay: Inhibition of recombinant human N-terminal GST-tagged c-RAF Y340D/Y341D mutant (306 to 648 residues) expressed in Sf9 insect cells at 2 uM using MEK1(K97R) as substrate relative to control
[21] = molecular target: Mitogen-activated protein kinase 8 (Homo sapiens) (UniProt P45983); assay: Inhibition of recombinant human full-length N-terminal His-tagged JNK1alpha1 ([…]) expressed in Sf21 insect cells at 2 uM using ATF2 (19 to 96 residues) as substrate relative to control
[22] = molecular target: Tyrosine-protein kinase ZAP-70 (Homo sapiens) (UniProt P43403); assay: Inhibition of recombinant human full-length C-terminal His6-tagged ZAP70 expressed in Sf21 insect cells at 2 uM using poly (Glu4-Tyr) (4:1) as substrate relative to control
Sequence of Tyrosine-protein kinase ZAP-70 (Homo sapiens) (P43403 whole entry): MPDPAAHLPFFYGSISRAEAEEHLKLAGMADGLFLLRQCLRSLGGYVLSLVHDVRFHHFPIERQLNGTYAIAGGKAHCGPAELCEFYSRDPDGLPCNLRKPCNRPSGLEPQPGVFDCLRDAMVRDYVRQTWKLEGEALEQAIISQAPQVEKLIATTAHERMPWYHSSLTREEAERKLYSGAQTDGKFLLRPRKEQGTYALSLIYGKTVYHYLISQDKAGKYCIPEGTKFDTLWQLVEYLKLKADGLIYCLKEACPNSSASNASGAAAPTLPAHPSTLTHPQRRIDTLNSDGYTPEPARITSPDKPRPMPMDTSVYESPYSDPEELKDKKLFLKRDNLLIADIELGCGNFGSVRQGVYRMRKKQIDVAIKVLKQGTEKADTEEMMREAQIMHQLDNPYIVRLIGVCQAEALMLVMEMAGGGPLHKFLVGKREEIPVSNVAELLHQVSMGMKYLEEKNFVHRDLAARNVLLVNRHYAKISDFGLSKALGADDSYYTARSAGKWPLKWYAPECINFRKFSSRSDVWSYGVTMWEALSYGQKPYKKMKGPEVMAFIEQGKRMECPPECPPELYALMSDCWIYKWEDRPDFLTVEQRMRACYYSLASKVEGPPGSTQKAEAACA

[23] = molecular target: Serine/threonine-protein kinase PAK 2 (Homo sapiens) (UniProt Q13177); assay: Inhibition of recombinant human N-terminal/C-terminal His6-tagged full-length PAK2 (3 to end residues) expressed in Escherichia coli at 2 uM using long S6 Kinase peptide as substrate relative to control
Sequence of Serine/threonine-protein kinase PAK 2 (Homo sapiens) (Q13177 whole entry): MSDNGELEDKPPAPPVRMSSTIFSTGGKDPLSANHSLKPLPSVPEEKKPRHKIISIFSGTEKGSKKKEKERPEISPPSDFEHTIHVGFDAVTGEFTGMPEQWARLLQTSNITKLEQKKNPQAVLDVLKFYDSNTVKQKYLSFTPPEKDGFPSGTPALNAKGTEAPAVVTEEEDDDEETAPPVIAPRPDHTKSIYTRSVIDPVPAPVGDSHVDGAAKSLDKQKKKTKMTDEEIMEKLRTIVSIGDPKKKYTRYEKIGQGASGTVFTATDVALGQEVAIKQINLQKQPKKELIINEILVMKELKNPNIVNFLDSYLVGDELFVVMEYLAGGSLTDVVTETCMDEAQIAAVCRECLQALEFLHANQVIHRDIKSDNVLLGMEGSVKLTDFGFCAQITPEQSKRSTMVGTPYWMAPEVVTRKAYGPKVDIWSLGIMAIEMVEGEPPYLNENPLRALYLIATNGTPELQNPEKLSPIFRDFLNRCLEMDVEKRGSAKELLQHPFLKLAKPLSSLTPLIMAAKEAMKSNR

[24] = molecular target: Tyrosine-protein kinase Blk (Homo sapiens) (UniProt P51451); assay: Inhibition of recombinant N-terminal His6-tagged human full-length BLK expressed in Sf21 insect cells at 2 uM using Poly (Glu4-Tyr) (4:1) as substrate relative to control
[25] = molecular target: Platelet-derived growth factor receptor alpha (Homo sapiens) (UniProt P16234); assay: Inhibition of recombinant human N-terminal His6-tagged PDGFRalpha (550 to end residues) expressed in baculovirus infected Sf21 insect cells at 2 uM using poly (Glu4-Tyr) (4:1) as substrate relative to control
Sequence of Platelet-derived growth factor receptor alpha (Homo sapiens) (P16234 whole entry): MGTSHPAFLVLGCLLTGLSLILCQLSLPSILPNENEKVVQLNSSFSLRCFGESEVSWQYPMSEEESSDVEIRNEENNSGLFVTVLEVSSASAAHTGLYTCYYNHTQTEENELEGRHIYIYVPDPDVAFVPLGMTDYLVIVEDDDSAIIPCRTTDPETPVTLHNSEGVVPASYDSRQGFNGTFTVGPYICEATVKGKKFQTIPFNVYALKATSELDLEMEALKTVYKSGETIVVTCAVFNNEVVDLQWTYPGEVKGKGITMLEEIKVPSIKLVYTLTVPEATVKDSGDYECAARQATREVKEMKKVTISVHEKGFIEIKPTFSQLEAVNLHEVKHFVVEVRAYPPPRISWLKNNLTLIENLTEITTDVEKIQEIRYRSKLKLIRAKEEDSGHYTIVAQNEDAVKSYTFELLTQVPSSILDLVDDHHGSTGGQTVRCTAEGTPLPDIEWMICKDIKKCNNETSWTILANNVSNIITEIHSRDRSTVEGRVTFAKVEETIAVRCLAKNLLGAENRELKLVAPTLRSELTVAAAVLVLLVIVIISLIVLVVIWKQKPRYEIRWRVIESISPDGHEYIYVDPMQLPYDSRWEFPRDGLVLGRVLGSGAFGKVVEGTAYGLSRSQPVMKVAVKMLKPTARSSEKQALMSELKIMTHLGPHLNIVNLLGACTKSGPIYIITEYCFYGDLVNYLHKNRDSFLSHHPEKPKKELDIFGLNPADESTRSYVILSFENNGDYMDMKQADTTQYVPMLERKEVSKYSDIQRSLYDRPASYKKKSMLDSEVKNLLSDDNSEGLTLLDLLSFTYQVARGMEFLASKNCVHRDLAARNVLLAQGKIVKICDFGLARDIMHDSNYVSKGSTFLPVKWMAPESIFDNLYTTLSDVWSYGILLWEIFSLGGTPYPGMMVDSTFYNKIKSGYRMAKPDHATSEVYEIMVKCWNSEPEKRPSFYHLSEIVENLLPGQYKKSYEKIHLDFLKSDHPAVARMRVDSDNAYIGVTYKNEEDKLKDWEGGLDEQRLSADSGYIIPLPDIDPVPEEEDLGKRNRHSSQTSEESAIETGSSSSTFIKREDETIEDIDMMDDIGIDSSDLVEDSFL

[26] = molecular target: Vascular endothelial growth factor receptor 1 (Homo sapiens) (UniProt P17948); assay: Inhibition of recombinant human N-terminal GST-tagged FLT1 (783 to end residues) expressed in baculovirus infected Sf21 insect cells at 2 uM using KKKSPGEYVNIEFG as substrate relative to control
[27] = molecular target: Tyrosine-protein kinase Fyn (Homo sapiens) (UniProt P06241); assay: Inhibition of recombinant human N-terminal His6-tagged full-length FYN expressed in baculovirus infected Sf21 insect cells at 2 uM using Src peptide as substrate relative to control
[28] = molecular target: Serine/threonine-protein kinase mTOR (Homo sapiens) (UniProt P42345); assay: Inhibition of recombinant human N-terminal FLAG-tagged mTOR (1362 to end residues) at 2 uM relative to control

C[C@@H](c1ccc2ncccc2c1)c1nnc2sc(-c3cnn(C)c3)nn12
inhibition [1]: < 50% | inhibition [2]: < 50% | inhibition [3]: < 50% | CL free [4]: 7.2 µL/min | pKi [5]: < 5.40 | inhibition [6]: < 50% | pKi [7]: < 5.40 | inhibition [8]: < 50% | pIC50 [9]: 7.70 | inhibition [10]: < 50% | inhibition [11]: < 50% | inhibition [12]: < 50% | pKi [13]: < 5.40 | inhibition [14]: < 50% | inhibition [15]: < 50% | inhibition [16]: < 50% | inhibition [17]: < 50% | inhibition [18]: < 50% | inhibition [19]: < 50% | inhibition [20]: < 50% | inhibition [21]: < 50% | inhibition [22]: < 50% | inhibition [23]: < 50% | inhibition [24]: < 50% | inhibition [25]: < 50% | inhibition [26]: < 50% | inhibition [27]: < 50% | inhibition [28]: < 50%
